Assay results taken from patent publication US8951999B2, “Compounds” (Orexo AB, priority 2009, dated 2015).

target: T1, recombinant human mPGES-1 (Homo sapiens, UniProt O14684); test: Assay A: mPGES-1 enzyme assay (HTRF detection of PGE2); assay type: biochemical; conditions: biological assay A (compounds 1-41, 54, 55, 62, 73); PGE2 formation from PGH2, HTRF; read-out: mPGES-1 inhibitory effect IC50
T1 sequence (O14684 1-152): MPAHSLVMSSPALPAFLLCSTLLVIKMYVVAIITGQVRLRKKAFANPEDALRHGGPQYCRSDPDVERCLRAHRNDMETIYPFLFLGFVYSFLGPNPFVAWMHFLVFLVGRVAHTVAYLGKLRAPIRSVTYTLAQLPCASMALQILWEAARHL
Excerpt: Assay A: mPGES-1 Enzyme Assay
The basis of the assay used is to measure the inhibition of microsomal prostaglandin E2 synthase-1 (mPGES-1) dependent prostaglandin (PG) E2 formation from PGH2 by different compounds. Thus, the formation of PGE2 is used as signal and a lowering of this signal can be interpreted as inhibition of mPGES-1. Similar assays to measure inhibition of mPGES-1 have previously been described in the literature.
• Glutathione (Sigma, G-4251) • Freeze culture in Rosetta E coli expression strain. • LB growth media with Ampillicillin (Amp) final concentration in culture 50 μg/mL • Chloroamphenicol stock 34 mg/mL (chloro) final concentration in culture 34 μg/mL • Sterile growth flasks for 500 mL-1 liter cultures • 0.1 M KPi buffer pH 7.4 • 9.25% HCl • PGH2 (0.25 mM) • Fe (II) Cl2 tetrahydrate, 99% (Sigma, 220229) • 384-well plate with compounds • 96-well plate, polypropylene (Thermo fast 96 skirted VWR) • 384-well plate polypropylene PCR plate (Greiner 785201) • Greiner 384-well plate pp (In vitro cat. no. 781280) • Adhesive sealing film for 96-well plates (Sigma-Aldrich) • Aluminium foil (PCR foil, 310-0030-127-471 from Labora) • PBS (GIBCO 14040) • Prostaglandin E2 Assay (Cisbio, cat. no. 62P2APEC) • Biomek FX robot (Beckman Coulter) • Biomek NX robot (Beckman Coulter) • Multidrop; micro or combi (ThermoLabsystems) • Plate reader: Safire2 (Tecan)
Microsomes from Rosetta E. coli bacteria expressing recombinant human mPGES-1 can be derived as described below:
Inoculate 5 mL LB with Amp and Chloro with bacteria from freeze culture. Incubate over night at 37° C. with 200 rpm. Thereafter, inoculate 500-800 mL LB containing Amp and Chloro with the 5 mL on culture and grow to OD640 of 0.6-0.8. Chill the culture to +4° C. before induction. Induce the culture with IPTG at a final concentration of 400 μM. Express the protein at room temp 18-23° C. with 200 rpm shaking over night.
The following steps can be performed on the following day: • 1. Spin down the cells in 250 mL centrifuge flasks for 15 min at 7000 rpm • 2. Dissolve the pellet from 250 mL culture in 12.5 mL homogenization buffer • 3. Disintegrate the cells by sonication, 4×10 seconds at 35% amplitude • 4. Add 2.5 mL MgCl2 (100 mM) and DNase 12.5 μL (0.8 mg/mL) and incubate on ice for 30 min • 5. Spin down the bacteria debris and save the supernatant, 7000 rpm for 15 min • 6. Isolate the protein containing membranes in the supernatant by ultracentrifugation 45000×g for 1 hour. • 7. Discard the supernatant and dissolve the pellet in 20 mM KPi buffer and aliquot the enzyme and store aliquots at −80° C.
Before each experiment is performed an aliquot of the enzyme is thawed and it can then be dissolved in 0.1 M KPi pH 7.4 buffer containing 2.5 mM GSH. 50 μL of this enzyme solution is subsequently dispensed in a 384-well plate at room temperature. 0.5 μL of the inhibitor dissolved in DMSO is thereafter added to each well and incubated for 25 minutes at room temperature. Subsequently, 2 μL of PGH2 dissolved in an appropriate solvent is added to each well and after one minute at room temperature, the acidified stop solution containing FeCl2 is added. 4 μL of the total volume is transferred to a separate plate and diluted 750-fold in two separate steps before quantification of PGE2.
In order to quantitate the amount of PGE2 that has been formed, a homogenous time resolved fluorescent (HTRF) detection of PGE2 can be performed by the use of a commercially available kit from CisBio essentially according to the manufacturer's protocol. […]

How did the IC50 turn out when `CC(C)(C)C(=O)NCc1ccc(Cl)c(C(=O)Nc2ccc(OCC3CC3)c(C(=O)N[C@H]3CC[C@H](C(F)(F)F)CC3)c2)c1` [Example 38, N-[4-(Cyclopropylmethyloxy)-3-[trans-(4-trifluoromethyl-cyclohexyl)amino]carbonyl-phenyl]-2-chloro-5-(tert-butylcarbonylamino)methyl-benzamide] was run?
Its IC50 is 4 nM.

How did the IC50 turn out when `COc1ccc(NC(=O)c2cc(CNC(=O)c3c(F)ccc(F)c3Cl)ccc2Cl)cc1C(=O)Nc1ccc(Br)cc1` [Example 23] was run?
The IC50 was 1 nM.

`COc1ccc(NC(=O)c2cc(CNC(=O)C(C)(C)C)ccc2Cl)cc1C(=O)Nc1cc(C(F)(F)F)ccn1` [Example 8, N-[4-Methoxy-3-(4-trifluoromethyl-pyridin-2-yl)aminocarbonyl-phenyl]-2-chloro-5-(tert-butylcarbonylamino)methyl-benzamide] was tested. Which IC50 did it give?
Its IC50 is 7 nM.

`CC(C)(C)C(=O)NCc1ccc(Cl)c(C(=O)Nc2ccc(Cl)c(C(=O)Nc3ccc(Br)cc3)c2)c1` [Example 3, N-[4-Chloro-3-(4-bromophenyl)aminocarbonyl-phenyl]-2-chloro-5-(tert-butylcarbonylamino)methyl-benzamide] was tested. Which IC50 did it give?
Its IC50 is 22 nM.

How did the IC50 turn out when `CNC(=O)c1cc(NC(=O)c2cc(CNC(=O)C3(C)CCCCC3)ccc2C)ccc1Cl` [Example 1, N-(4-Chloro-3-methylaminocarbonyl-phenyl)-2-methyl-5-[(1-methylcyclohexylcarbonylamino)methyl]-benzamide] was run?
The IC50 was roughly 1600 nM.

How did the IC50 turn out when `COc1ccc(NC(=O)c2cc(CNC(=O)C(C)(C)C(F)(F)F)ccc2Cl)cc1C(=O)Nc1ccc(Br)cc1` [Example 9, N-[4-Methoxy-3-(4-bromophenyl)aminocarbonyl-phenyl]-2-chloro-5-(2,2,2-trifluoro-1,1-dimethyl-ethyl)carbonylaminomethyl-benzamide] was run?
The IC50 was 2 nM.

How did the IC50 turn out when `COc1ccc(NC(=O)c2cc(CNC(=O)C(C)(C)C)ccc2Cl)cc1C(=O)N[C@H]1CC[C@@H](C(F)(F)F)CC1` [Example 19] was run?
Its IC50 is 4 nM.

`O=C(NCc1ccc(Cl)c(C(=O)Nc2ccc(Cl)c(C(=O)NC3CC3)c2)c1)c1ccc(Cl)s1` [Example 10, N-[4-Chloro-3-cyclopropylaminocarbonyl-phenyl]-2-chloro-5-(5-chloro-thien-2-yl)carbonylaminomethyl-benzamide] was tested. Which IC50 did it give?
The IC50 was roughly 900 nM.

Which IC50 does the source give for `COc1ccc(NC(=O)c2cc(CNC(=O)C3(C)CCCCC3)ccc2Cl)cc1C(=O)Nc1ccc(Br)cc1` [Example 27] here?
The IC50 was 2 nM.

How did the IC50 turn out when `COc1ccc(NC(=O)c2cc(CNC(=O)C(C)(C)C)ccc2Cl)cc1C(=O)NC1CC1` [Example 35] was run?
Its IC50 is roughly 500 nM.

With `CC(C)(C)C(=O)NCc1ccc(Cl)c(C(=O)Nc2ccc(OCC(F)(F)F)c(C(=O)N[C@H]3CC[C@H](C(F)(F)F)CC3)c2)c1` [Example 11] as the molecule, how does the IC50 read?
Its IC50 is 4 nM.

For `COc1ccc(NC(=O)c2cc(CNC(=O)C(C)(C)C)ccc2Cl)cc1C(=O)NCc1ccccc1C(F)(F)F` [Example 16], which IC50 is on record?
Its IC50 is 14 nM.

For `CN(C)c1ccc(NC(=O)c2cc(CNC(=O)C(C)(C)C)ccc2Cl)cc1C(=O)N[C@H]1CC[C@H](C(F)(F)F)CC1` [Example 62, N-[4-(dimethylamino)-3-(trans-4-trifluoromethylcyclohexyl)aminocarbonyl-phenyl]-2-chloro-5-(tert-butylcarbonylamino)methyl-benzamide], which IC50 is on record?
The IC50 was 11 nM.

Which IC50 does the source give for `COc1ccc(NC(=O)c2cc(CNC(=O)C3CCCCC3C)ccc2Cl)cc1C(=O)Nc1ccc(Br)cc1` (stereo not shown) [Example 29] here?
Its IC50 is 2 nM.

How did the IC50 turn out when `COc1ccc(NC(=O)c2cc(CNC(=O)C(C)C(F)(F)F)ccc2Cl)cc1C(=O)Nc1ccc(Br)cc1` (stereo not shown) [Example 32] was run?
The IC50 was 2 nM.

For `Cc1ccc(NC(=O)c2cc(CNC(=O)C(C)(C)C)ccc2Cl)cc1C(=O)Nc1ccc(Br)cc1` [Example 55, N-[4-Methyl-3-(4-bromophenyl)aminocarbonyl-phenyl]-2-chloro-5-(tert-butylcarbonylamino)methyl-benzamide], which IC50 is on record?
Its IC50 is 59 nM.

Which IC50 does the source give for `COc1ccc(NC(=O)c2cc(CNC(=O)C3(C(F)(F)F)CC3)ccc2Cl)cc1C(=O)Nc1ccc(Br)cc1` [Example 31] here?
The IC50 was 2 nM.

With `COc1ccc(NC(=O)c2cc(CNC(=O)c3c(F)cccc3C(F)(F)F)ccc2Cl)cc1C(=O)Nc1ccc(Br)cc1` [Example 26] as the molecule, how does the IC50 read?
The IC50 was 3 nM.

For `COc1ccc(NC(=O)c2cc(CNC(=O)C(C)(C)C)ccc2Cl)cc1C(=O)N[C@H]1CC[C@H](C(C)(C)C)CC1` [Example 18], which IC50 is on record?
Its IC50 is 2 nM.
